Patent US9371336B2, “Compounds for treating spinal muscular atrophy” (PTC Therapeutics Inc., priority 2012, dated 2016)

What was measured:
[1] = tested on: SMN2 minigene mRNA (SMN2-A minigene construct); assay: SMN2 minigene mRNA splicing RT-qPCR assay in cultured cells; format: cell-based, human; conditions: for inclusion of exon 7 of SMN2 into mRNA / SMN2 minigene FL mRNA relative to vehicle control: HEK293H cells with SMN2-A minigene, 24 hr; for inclusion of exon 7 of SMN2 into mRNA: relative to untreated cells (FIG. 3); for SMN2 minigene FL mRNA relative to vehicle control: rising concentrations, RT-qPCR (FIG. 3); for EC (1.5-fold): Homo sapiens, HEK293-H, HEK293H cells stably transfected with SMN2-A minigene, 24 hours, 7-point concentration data, concentration giving 1.5-fold SMN2 full length mRNA relative to vehicle-treated cells, read-out: EC1.5x for production of full length SMN2 mRNA
Outline: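 Full-length SMN2 minigene mRNA, measured by exon 7/luciferase-specific RT-qPCR that excludes endogenous SMN1/SMN2, was normalized to GAPDH and expressed relative to vehicle-treated cells via modified ΔΔCt. Stably transfected HEK293H cells received compound (7-point, 3.16-fold series, duplicates) for 24 h at 37 °C.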

[2] = tested on: gems (Smn-dependent nuclear speckles) in SMA patient fibroblast cells; assay: Gems count (Smn-dependent nuclear speckle count) assay; format: cell-based, human; conditions: SMA Type 1 patient cells, 48 hour, fluorescence microscopy (FIG. 7)
Description: The level of Smn protein directly correlates with the amount of nuclear foci, also known as gems, produced upon staining the cell with a fluorescently labeled anti-Smn antibody (Liu and Dreyfuss, EMBO J., 1996, 15:3555). Gems are multi-protein complexes whose formation is nucleated by the Smn protein and the gems count assay is used to evaluate the level of Smn protein in the cell. As described herein, the gems count assay is used to quantify the level of Smn protein in SMA patient fibroblast cells treated with a test compound.
Cells are thawed and incubated in DMEM-10% FBS for 72 hours, then trypsinized, counted and resuspended to 100,000 cells/mL in DMEM-10% FBS. The cell suspension (2 mL) is plated in a 6-well cell culture plate with a sterile cover slip and incubated for 3 to 5 hours. Test compounds are serially diluted 3.16-fold in 100% DMSO to generate a 7-point dilution curve. […]
Cell culture medium is aspirated from the wells containing cover slips and gently washed three times with cold PBS. […] The number of gems is counted per ≧150 nuclei and % activation is calculated using DMSO and 10 nM bortezomib as controls. For each test compound, the cells are examined at all wavelengths to identify test compounds with inherent fluorescence.

Structure (SMILES) | inclusion of exon 7 of SMN2 into mRNA [1] | SMN2 minigene FL mRNA relative to vehicle control [1] | EC (1.5-fold) [1] [µM] | gems (nuclear speckle count) relative to DMSO [2]
CN1CCN(c2ccc3cc(-c4nc5c(Cl)cccc5s4)c(=O)oc3n2)CC1 [Cpd 5, 3-(4-chloro-1,3-benzothiazol-2-yl)-7-(4-methylpiperazin-1-yl)-2H-pyrano[2,3-b]pyridin-2-one] | fully restored exon 7 inclusion | increased SMN2 minigene FL mRNA at low concentrations | 0.1 to 0.3 | progressively more gems
Cc1ccc2nc(-c3cc4ccc(N5CCN(C)CC5)nc4oc3=O)cn2c1 [Cpd 27, 3-(6-methylimidazo[1,2-a]pyridin-2-yl)-7-(4-methylpiperazin-1-yl)-2H-pyrano[2,3-b]pyridin-2-one] | fully restored exon 7 inclusion | increased SMN2 minigene FL mRNA at low concentrations | 0.1 to 0.3 | –
